Key:
Assay in all cases: Test E preemergence
[1] = tested on: waterhemp; type: in vivo, Amaranthus rudis; settings: for Waterhemp plant response rating: scale 0 to 100 (0 no effect, 100 complete control)
Procedure, shortened: (§1)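 Response was scored visually on a 0-100 scale (100 = complete control) versus controls after 14 to 21 days in the greenhouse. Test chemicals, formulated with surfactant in a non-phytotoxic solvent mixture, had been applied preemergence to seeds in silt loam soil or postemergence to 1- to 4-leaf plants in potting medium.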

[2] = tested on: fall panicum; type: in vivo, Panicum dichotomiflorum; settings: for Panicum, Fall plant response rating: scale 0 to 100 (0 no effect, 100 complete control)
Source text: (§2) Seeds of plant species selected from corn (Zea mays), soybean (Glycine max), velvetleaf (Abutilon theophrasti), lambsquarters (Chenopodium album), wild poinsettia (Euphorbia heterophylla), palmer pigweed (Amaranthus palmeri), waterhemp (common waterhemp, Amaranthus rudis), surinam grass (Brachiaria decumbens), large (Lg) crabgrass (Digitaria sanguinalis), Brazilian crabgrass (Digitaria horizontalis), fall panicum (Panicum dichotomiflorum), giant foxtail (Setaria faberii), green foxtail (Setaria viridis), goosegrass (Eleusine indica), johnsongrass (Sorghum halepense), ragweed (common ragweed, Ambrosia elatior), barnyardgrass (Echinochloa crus-galli), sandbur (southern sandbur, Cenchrus echinatus), arrowleaf sida (Sida rhombifolia), Italian ryegrass (Lolium multiflorum), dayflower (Virginia (VA) dayflower, Commelina virginica), field bindweed (Convolvulus arvensis), morningglory (Ipomoea coccinea), nightshade (eastern black nightshade, Solanum ptycanthum), kochia (Kochia scoparia), yellow nutsedge (Cyperus esculentus), cocklebur (common cocklebur, Xanthium strumarium), smartweed (ladysthumb smartweed, and hairy beggarticks (Bidens pilosa), were planted into a silt loam soil and treated preemergence with test chemicals formulated in a non-phytotoxic solvent mixture which included a surfactant.
(§3) At the same time, plants from these crop and weed species and also horseweed (Canada horseweed, Conyza canadensis), waterhemp_RES1, (ALS & Triazine resistant common waterhemp, Amaranthus rudis), and waterhemp_RES2, (ALS & HPPD resistant common waterhemp, Amaranthus rudis) were planted in pots containing Redi-Earth® planting medium (Scotts Company, 14111 Scottslawn Road, Marysville, Ohio 43041) comprising spaghnum peat moss, vermiculite, wetting agent and starter nutrients were treated with postemergence applications of test chemicals formulated in the same manner. Plants ranged in height from 2 to 18 cm for postemergence treatments (1- to 4-leaf stage). Treated plants and controls were maintained in a greenhouse for 14 to 21 days, after which time all species were compared to controls and visually evaluated. Plant response ratings, summarized in Table E, are based on a scale of 0 to 100 where 0 is no effect and 100 is complete control. A dash (-) response means no test result.

[3] = tested on: ragweed; type: in vivo, Ambrosia elatior; settings: for Ragweed plant response rating: scale 0 to 100 (0 no effect, 100 complete control)
Procedure, shortened: as §1

[4] = tested on: hairy beggarticks; type: in vivo, Bidens pilosa; settings: for Beggarticks plant response rating: scale 0 to 100 (0 no effect, 100 complete control)
Procedure, shortened: as §1

[5] = tested on: palmer pigweed; type: in vivo, Amaranthus palmeri; settings: for Pigweed, Palmer plant response rating: scale 0 to 100 (0 no effect, 100 complete control)
Source text: as §2, §3

[6] = tested on: sandbur; type: in vivo, Cenchrus echinatus; settings: for Sandbur plant response rating: scale 0 to 100 (0 no effect, 100 complete control)
Procedure, shortened: as §1

[7] = tested on: green foxtail; type: in vivo, Setaria viridis; settings: for Foxtail, Green plant response rating: scale 0 to 100 (0 no effect, 100 complete control)
Procedure, shortened: as §1

[8] = tested on: nightshade; type: in vivo, Solanum ptycanthum; settings: for Nightshade plant response rating: scale 0 to 100 (0 no effect, 100 complete control)
Source text: as §2, §3

[9] = tested on: surinam grass; type: in vivo, Brachiaria decumbens; settings: for Surinam Grass plant response rating: scale 0 to 100 (0 no effect, 100 complete control)
Source text: as §2, §3

[10] = tested on: velvetleaf; type: in vivo, Abutilon theophrasti; settings: for Velvetleaf plant response rating: scale 0 to 100 (0 no effect, 100 complete control)
Procedure, shortened: as §1

[11] = tested on: kochia; type: in vivo, Kochia scoparia; settings: for Kochia plant response rating: scale 0 to 100 (0 no effect, 100 complete control)
Source text: as §2, §3

[12] = tested on: soybean; type: in vivo, Glycine max; settings: for Soybean plant response rating: scale 0 to 100 (0 no effect, 100 complete control)
Procedure, shortened: as §1

[13] = tested on: wild poinsettia; type: in vivo, Euphorbia heterophylla; settings: for Poinsettia, Wild plant response rating: scale 0 to 100 (0 no effect, 100 complete control)
Procedure, shortened: as §1

[14] = tested on: Brazilian crabgrass; type: in vivo, Digitaria horizontalis; settings: for Crabgrass, Brazil plant response rating: scale 0 to 100 (0 no effect, 100 complete control)
Procedure, shortened: as §1

[15] = 125 g ai/ha, scale 0 to 100, 0 no effect, 100 complete control
[16] = preemergence, 125 g ai/ha, scale 0 to 100, 0 no effect, 100 complete control
[17] = 8 g ai/ha, scale 0 to 100, 0 is no effect, 100 is complete control

FC(F)(F)COc1cnn(-c2ccccc2Oc2ncc(Cl)cn2)c1 [Compound 138, 5-chloro-2-[2-[4-(2,2,2-trifluoroethoxy)-1H-pyrazol-1-yl]phenoxy]pyrimidine]
40: Velvetleaf plant response rating ([10]; 16 g ai/ha) | Crabgrass, Brazil plant response rating ([14]; 31 g ai/ha)
75: Pigweed, Palmer plant response rating ([5]; 62 g ai/ha) | Kochia plant response rating ([11]; 31 g ai/ha)
0: Waterhemp plant response rating ([1]; 16 g ai/ha) | Panicum, Fall plant response rating ([2]; 16 g ai/ha) | Ragweed plant response rating ([3]; 16 g ai/ha) | Ragweed plant response rating ([3]; 31 g ai/ha) | Ragweed plant response rating ([3]; 62 g ai/ha) | Plant response rating, Ragweed [3, 15] | Beggarticks plant response rating ([4]; 16 g ai/ha, preemergence) | Beggarticks plant response rating ([4]; 31 g ai/ha, preemergence) | Beggarticks plant response rating ([4]; 62 g ai/ha, preemergence) | Plant response rating, Beggarticks [4, 16] | Pigweed, Palmer plant response rating ([5]; 16 g ai/ha) | Sandbur plant response rating ([6]; 16 g ai/ha) | Sandbur plant response rating ([6]; 31 g ai/ha) | Foxtail, Green plant response rating ([7]; 16 g ai/ha) | Foxtail, Green plant response rating ([7]; 31 g ai/ha) | Nightshade plant response rating ([8]; 16 g ai/ha) | Nightshade plant response rating ([8]; 31 g ai/ha) | Surinam Grass plant response rating ([9]; 16 g ai/ha) | Surinam Grass plant response rating ([9]; 31 g ai/ha) | Soybean plant response rating ([12]; 16 g ai/ha) | Soybean plant response rating ([12]; 31 g ai/ha) | Poinsettia, Wild plant response rating ([13]; 16 g ai/ha) | Crabgrass, Brazil plant response rating ([14]; 16 g ai/ha)
100: Waterhemp plant response rating ([1]; 31 g ai/ha) | Plant response rating, Waterhemp [1, 15] | Panicum, Fall plant response rating ([2]; 62 g ai/ha) | Plant response rating, Panicum, Fall [2, 15] | Plant response rating, Velvetleaf [10, 15] | Plant response rating, Kochia [11, 15]
98: Plant response rating, Foxtail, Green [7, 15] | Nightshade plant response rating ([8]; 62 g ai/ha) | Plant response rating, Crabgrass, Brazil [14, 15]
60: Kochia plant response rating ([11]; 16 g ai/ha)
10: Sandbur plant response rating ([6]; 62 g ai/ha)
50: Plant response rating, Surinam Grass [9, 15]
25: Panicum, Fall plant response rating ([2]; 31 g ai/ha) | Poinsettia, Wild plant response rating ([13]; 31 g ai/ha) | Plant response rating, Poinsettia, Wild [13, 15]
90: Waterhemp plant response rating ([1]; 62 g ai/ha) | Plant response rating, Nightshade [8, 15] | Velvetleaf plant response rating ([10]; 62 g ai/ha) | Kochia plant response rating ([11]; 62 g ai/ha) | Crabgrass, Brazil plant response rating ([14]; 62 g ai/ha)
35: Plant response rating, Soybean [12, 15] | Poinsettia, Wild plant response rating ([13]; 62 g ai/ha)
15: Plant response rating, Sandbur [6, 15]
70: Pigweed, Palmer plant response rating ([5]; 31 g ai/ha) | Plant response rating, Pigweed, Palmer [5, 15] | Velvetleaf plant response rating ([10]; 31 g ai/ha)
20: Foxtail, Green plant response rating ([7]; 62 g ai/ha) | Surinam Grass plant response rating ([9]; 62 g ai/ha)

Clc1cnc(Oc2ccccc2-n2cc(Br)cn2)nc1 [Compound 7, 2-[2-(4-bromo-1H-pyrazol-1-yl)phenoxy]-5-chloropyrimidine]
100: Waterhemp plant response rating ([1]; 16 g ai/ha) | Waterhemp plant response rating ([1]; 31 g ai/ha) | Waterhemp plant response rating ([1]; 62 g ai/ha) | Plant response rating, Waterhemp [1, 15] | Pigweed, Palmer plant response rating ([5]; 62 g ai/ha) | Plant response rating, Pigweed, Palmer [5, 15] | Plant response rating, Velvetleaf [10, 15] | Crabgrass, Brazil plant response rating ([14]; 62 g ai/ha) | Plant response rating, Crabgrass, Brazil [14, 15]
85: Pigweed, Palmer plant response rating ([5]; 31 g ai/ha)
98: Nightshade plant response rating ([8]; 31 g ai/ha) | Nightshade plant response rating ([8]; 62 g ai/ha) | Plant response rating, Nightshade [8, 15] | Velvetleaf plant response rating ([10]; 62 g ai/ha)
30: Foxtail, Green plant response rating ([7]; 31 g ai/ha)
40: Soybean plant response rating ([12]; 62 g ai/ha)
35: Plant response rating, Sandbur [6, 15] | Foxtail, Green plant response rating ([7]; 62 g ai/ha) | Plant response rating, Surinam Grass [9, 15]
75: Plant response rating, Foxtail, Green [7, 15]
65: Nightshade plant response rating ([8]; 16 g ai/ha) | Velvetleaf plant response rating ([10]; 31 g ai/ha)
10: Surinam Grass plant response rating ([9]; 62 g ai/ha)
95: Plant response rating, Waterhemp [1, 17] | Pigweed, Palmer plant response rating ([5]; 16 g ai/ha) | Plant response rating, Kochia [11, 15]
80: Crabgrass, Brazil plant response rating ([14]; 31 g ai/ha)
20: Plant response rating, Velvetleaf [10, 17]
0: Plant response rating, Ragweed [3, 17] | Ragweed plant response rating ([3]; 16 g ai/ha) | Ragweed plant response rating ([3]; 31 g ai/ha) | Ragweed plant response rating ([3]; 62 g ai/ha) | Plant response rating, Ragweed [3, 15] | Plant response rating, Beggarticks ([4]; 8 g ai/ha, preemergence, scale 0 to 100, 0 is no effect, 100 is complete control) | Beggarticks plant response rating ([4]; 16 g ai/ha, preemergence) | Beggarticks plant response rating ([4]; 31 g ai/ha, preemergence) | Plant response rating, Beggarticks ([4]; Preemergence, 62 g ai/ha, scale 0 to 100, 0 no effect, 100 complete control) | Plant response rating, Beggarticks [4, 16] | Plant response rating, Pigweed, Palmer [5, 17] | Plant response rating, Sandbur [6, 17] | Sandbur plant response rating ([6]; 16 g ai/ha) | Sandbur plant response rating ([6]; 31 g ai/ha) | Sandbur plant response rating ([6]; 62 g ai/ha) | Plant response rating, Foxtail, Green [7, 17] | Foxtail, Green plant response rating ([7]; 16 g ai/ha) | Plant response rating, Nightshade [8, 17] | Plant response rating, Surinam Grass [9, 17] | Surinam Grass plant response rating ([9]; 16 g ai/ha) | Surinam Grass plant response rating ([9]; 31 g ai/ha) | Plant response rating, Kochia [11, 17] | Kochia plant response rating ([11]; 16 g ai/ha) | Kochia plant response rating ([11]; 31 g ai/ha) | Plant response rating, Soybean [12, 17] | Soybean plant response rating ([12]; 16 g ai/ha) | Soybean plant response rating ([12]; 31 g ai/ha) | Plant response rating, Poinsettia, Wild [13, 17] | Poinsettia, Wild plant response rating ([13]; 16 g ai/ha) | Poinsettia, Wild plant response rating ([13]; 31 g ai/ha) | Plant response rating, Poinsettia, Wild [13, 15] | Plant response rating, Crabgrass, Brazil [14, 17] | Crabgrass, Brazil plant response rating ([14]; 16 g ai/ha)
50: Velvetleaf plant response rating ([10]; 16 g ai/ha) | Kochia plant response rating ([11]; 62 g ai/ha) | Plant response rating, Soybean [12, 15]

Reference: patent US9695155B2, “Herbicidal substituted pyrimidinyloxy benzene compounds” (E. I. DU PONT DE NEMOURS AND COMPANY, priority 2013, dated 2017)
